# Data from US12435091B2, “RNA-binding protein multimerization inhibitors and methods of use thereof” (THE UAB RESEARCH FOUNDATION, priority 2020, dated 2025).
# Key:
# [1] = Mouse liver microsomal stability in vitro; type: in vitro ADME; settings: liver microsomes, read-out: MLM t1/2
# Experimental: Selected compounds were assessed for their aqueous solubility, Log D and mouse and human liver microsomal stability.
# primary human astrocytes = experiment: cleaved caspase-3 immunostaining in primary human astrocytes; type: cell-based; settings: up to 15 uM
# Experimental: At the end of experiments, neurons and astrocytes were rinsed briefly with PBS and fixed by using 4% paraformaldehyde, pH 7.4 for 13 minutes at room temperature. Triton X-100 (0.3%) in PBST buffer (i.e., PBS with 0.1% Tween 20) was used for cell permeabilization for 30 minutes at room temperature. Cells were rinsed with PBST buffer 3 times for 10 minutes after fixation. Blocking buffer (3% BSA, 22.52 mg/ml glycine in PBST) was used to block unspecific antibody binding for 30 minutes at room temperature. Primary cleaved caspase 3 antibody (Cell Signaling Technology; Danvers, MA) at 1:200 dilution in PBST buffer with 1% BSA was utilized overnight at 4° C. for cleaved caspase 3 staining. The next day, cells were rinsed four times for 10 minutes with PBST buffer and then were incubated with secondary antibody (Alexa Fluor 594, goat anti-rabbit IgG, Invitrogen (Carlsbad, CA), 1:2000/5000 dilution) in PBST buffer with 1% BSA for 1 hour at room temperature in the dark. Next, cells were rinsed with PBST buffer 4 times for 10 minutes in the dark. Cell nucleus were stained with DAPI (4′,6-diamidino-2-phenylindole). Cell images were obtained with EVOS Fl (Life Technologies; Eugene, OR) imaging system.
# The cellular metabolism declined by about 44% after treatment with SRI-42127, 25 uM for 48 hours as shown by FIG. 5E. […]
# [2] = test system: allodynia after spared nerve injury; experiment: spared nerve injury (sciatic nerve) model, mechanical sensitivity (Von Frey); type: in vivo; settings: acute administration to DMSO-treated mice at day 7
# Experimental: (§1) Wild-type male mice were subjected to a mid-thoracic contusion injury and then treated with SRI-42127 (15 mg/kg) every 8 hours for 4 days, starting 1 hour after injury. […] Not to be bound by theory, similar to spinal cord injury, chronic pain signaling is triggered by activation of microglia and astroglia in the spinal cord and production of inflammatory mediators (e.g. TNF-α, IL-1β, IL-6, INOS, CCL2) that induce hyperexcitation of sensory neurons in the dorsal horn. Mice underwent sciatic nerve lesioning to produce a spared nerve injury and then received SRI-42127 (15 mg/kg) or vehicle every 6 hours for 4 days (starting 1 h after injury). Mechanical sensitivity was assessed at day 7 post-injury. […] Following this test, a subset of mice in the DMSO-treated group was given an acute administration of SRI-42127 (or DMSO) and their mechanical sensitivity was tested at 30 minutes and 60 minutes post-administration. Acute treatment with SRI-42127 reversed allodynia in these mice for at least 60 minutes (p<0.01, FIG. 21, Panel D).
# spinal cord injury = experiment: mid-thoracic contusion spinal cord injury in mice; type: in vivo
# Experimental: as §1
# microglia = experiment: PrestoBlue cell viability assay in microglia; type: cell-based, mouse; settings: tested dose range (up to 1 μM)
# [3] = test system: X1524 neurospheres, HuR mRNA targets; experiment: Illumina global RNA-sequencing of PDGx neurospheres; type: cell-based; settings: 3 uM, 12 hours, compared to control
# Experimental: (§2) Illumina global RNA-sequencing data were generated by utilizing PDGx neurospheres, which have been treated with a compound as described herein (e.g., SRI-42127, 3 uM) for 12 hours or with vehicle as the control. RNA was isolated by using TRIzol reagent (Invitrogen; Carlsbad, CA). The RNA samples were processed.
# (§3) RNA sequencing was performed on PDGx-derived glioma neurospheres representing the different molecular subtypes (classical, neuronal, and mesenchymal) after treatment with vehicle (control) or SRI-42127 (3 uM) for 12 hours. Analysis of direct HuR mRNA targets and their corresponding cell signaling pathways was performed. Table 9 illustrates the evaluated gene sets, representing direct HuR mRNA targets, and their corresponding cell signaling pathways.
# (§4) The analysis of direct HuR mRNA targets and their corresponding cell signaling pathways has been performed by using gene sets, which have been defined as the direct HuR targets following tumor neurosphere treatment with DHTS, an established modulator of HuR/mRNA interaction (Lal et al., Nucleic Acid Research, 2017). […] Data are represented as average+standard deviation (Aver+SD). The significance was evaluated by using Student t-test.
# (§5) The analysis was generated based on RNA-Seq data.
# [4] = test system: XD456 neurospheres, HuR mRNA targets; experiment: as above; type: cell-based; settings: 3 uM, 12 hours, compared to control
# Experimental: as §2, §3, §4, §5
structure (smiles),measurement,setting,value
CN(c1ccc2ncc(-c3ccc4cn[nH]c4c3)n2n1)C1CCOCC1 [Compound 19],half-life,[1],3.3 min
same,cleaved caspase-3 activation,primary human astrocytes,significant alterations in cleaved caspase-3 activation were not observed
same,duration of reversal of allodynia after acute administration,[2],at least 60 minutes
same,increase in surviving neurons in the epicenter of injury,"spinal cord injury; 15 mg/kg every 8 hours for 4 days, stereology 2 weeks post injury",> 2 fold
same,increase in neuronal counts by stereology,"spinal cord injury; 4 weeks post SCI (FIG. 21, Panel B)",> 50%
same,toxicity to microglia,microglia,did not cause toxicity
same,"gene set average value, Activation of BH3-only proteins Homo sapiens_R-HSA-114452",[3],0.75
same,"gene set average value, Cell Cycle Check points_Homo Sapiens_R-HSA-69620",[3],0.66
same,"gene set average value, Cell Cycle, Mitotic_Homo Sapiens_R-HSA-69278",[3],0.67
same,"gene set average value, Cell Cycle_Homo sapiens_R-HSA-1640170",[3],0.66
same,"gene set average value, Cell cycle_Homo Sapiens_hsa04110",[3],0.75
same,"gene set average value, Cellular Senescence_Homo sapiens_R-HSA-2559583",[3],0.76
same,"gene set average value, Cellular responses to Stress_Homo sapiens_R-HSA-2262752",[3],0.70
same,"gene set average value, Deadenylation-dependent mRNA decay_Homo sapiens_R-HSA-429914",[3],0.84
same,"gene set average value, Developmental Biology_Homo sapiens_R-HSA-1266738",[3],0.72
same,"gene set average value, Epstein-Barr virus Infection_Homo Sapiens_hsa05169",[3],0.79
same,"gene set average value, G2/M Check points_Homo sapiens_R-HSA-69481",[3],0.66
same,"gene set average value, G2/M DNA damage Checkpoint_Homo sapiens_R-HSA-69473",[3],0.67
same,"gene set average value, Gene Expression_Homo Sapiens_R-HSA-2559583",[3],0.87
same,"gene set average value, HTLV-1 infection_Homo Sapiens_hsa05186",[3],0.88
same,"gene set average value, Intrinsic Pathway for Apoptosis_Homo sapiens_R-HSA-109606",[3],0.75
same,"gene set average value, MAPK signaling Pathway_Homo Sapiens_hsa04010",[3],0.76
same,"gene set average value, Membrane Trafficking_Homo sapiens_R-HAS-199991",[3],0.61
same,"gene set average value, Mitotic G1-G1/S phases_Homo sapiens_R-HSA-453279",[3],0.63
same,"gene set average value, P53 signaling pathway_Homo Sapiens_hsa04115",[3],1.07
same,"gene set average value, RHO GTPases Activate Formins_Homo sapiens_R-HSA-5663220",[3],0.65
same,"gene set average value, RHO GTPases Effectors_Homo sapiens_R-HSA-195258",[3],0.69
same,"gene set average value, RNA degradation_Homo Sapiens_hsa03018",[3],0.94
same,"gene set average value, Regulation of TP53 Activity through Phosphorylation_Homo sapiens_R-HSA-6804756",[3],0.64
same,"gene set average value, Regulation of TP53 Activity_Homo sapiens_R-HSA-109606",[3],0.77
same,"gene set average value, Signaling by Rho GTPases_Homo sapiens_R-HSA-194315",[3],0.72
same,"gene set average value, TP53 Regulates Metabolic Genes_Homo sapiens_R-HSA-5628897",[3],0.78
same,"gene set average value, Transcriptional Regulation by TP53_Homo sapiens_R-HSA-3700989",[3],0.81
same,"gene set average value, Translocation of GLUT4 to the plasma membrane_Homo sapiens_R-HSA-1445148",[3],0.69
same,"gene set average value, Activation of BH3-only proteins Homo sapiens_R-HSA-114452",[4],0.94
same,"gene set average value, Cell Cycle Check points_Homo Sapiens_R-HSA-69620",[4],0.48
same,"gene set average value, Cell Cycle, Mitotic_Homo Sapiens_R-HSA-69278",[4],0.54
same,"gene set average value, Cell Cycle_Homo sapiens_R-HSA-1640170",[4],0.52
same,"gene set average value, Cell cycle_Homo Sapiens_hsa04110",[4],0.60
same,"gene set average value, Cellular Senescence_Homo sapiens_R-HSA-2559583",[4],0.64
same,"gene set average value, Cellular responses to Stress_Homo sapiens_R-HSA-2262752",[4],0.53
same,"gene set average value, Deadenylation-dependent mRNA decay_Homo sapiens_R-HSA-429914",[4],0.58
same,"gene set average value, Developmental Biology_Homo sapiens_R-HSA-1266738",[4],0.49
same,"gene set average value, Epstein-Barr virus Infection_Homo Sapiens_hsa05169",[4],0.49
same,"gene set average value, G2/M Check points_Homo sapiens_R-HSA-69481",[4],0.47
same,"gene set average value, G2/M DNA damage Checkpoint_Homo sapiens_R-HSA-69473",[4],0.50
same,"gene set average value, Gene Expression_Homo Sapiens_R-HSA-2559583",[4],0.63
same,"gene set average value, HTLV-1 infection_Homo Sapiens_hsa05186",[4],0.61
same,"gene set average value, Intrinsic Pathway for Apoptosis_Homo sapiens_R-HSA-109606",[4],0.94
same,"gene set average value, MAPK signaling Pathway_Homo Sapiens_hsa04010",[4],0.54
same,"gene set average value, Membrane Trafficking_Homo sapiens_R-HAS-199991",[4],0.53
same,"gene set average value, Mitotic G1-G1/S phases_Homo sapiens_R-HSA-453279",[4],0.61
same,"gene set average value, P53 signaling pathway_Homo Sapiens_hsa04115",[4],1.19
same,"gene set average value, RHO GTPases Activate Formins_Homo sapiens_R-HSA-5663220",[4],0.48
same,"gene set average value, RHO GTPases Effectors_Homo sapiens_R-HSA-195258",[4],0.50
same,"gene set average value, RNA degradation_Homo Sapiens_hsa03018",[4],0.65
same,"gene set average value, Regulation of TP53 Activity through Phosphorylation_Homo sapiens_R-HSA-6804756",[4],0.35
same,"gene set average value, Regulation of TP53 Activity_Homo sapiens_",[4],0.44
same,"gene set average value, Signaling by Rho GTPases_Homo sapiens_R-HSA-194315",[4],0.45
same,"gene set average value, TP53 Regulates Metabolic Genes_Homo sapiens_R-HSA-5628897",[4],0.54
same,"gene set average value, Transcriptional Regulation by TP53_Homo sapiens_R-HSA-3700989",[4],0.64
same,"gene set average value, Translocation of GLUT4 to the plasma membrane_Homo sapiens_R-HSA-1445148",[4],0.53
